Results: PMC6261607, “Novel high–throughput myofibroblast assays identify agonists with therapeutic potential in pulmonary fibrosis that act via EP2 and EP4 receptors” (PLoS ONE, 2018)
Where two headings read alike, the source gives them in different places.

Experiments:
[1] = system: normal human lung fibroblasts (NHLF); test: Impedance measurement of TGF–β1–induced myofibroblast transition (IPQA), standard assay; format: cell-based
Experimental: To measure dynamic cell shape and adhesion changes during fibrotic transdifferentiation, NHLF were seeded at a density of 20,000 cells per well in FGM–2 growth medium (Lonza) containing 100 units / ml of penicillin and 100 μg / ml of streptomycin into E–plates with continued impedance signal measurement (xCELLigence system, Roche Applied Science). After overnight growth, the medium was exchanged for FBM (Lonza) supplemented with 100 units / ml of penicillin and 100 μg / ml of streptomycin and 0.1% faf BSA and cells were starved for 32 h. Compound dilution series were added and myofibroblast transition was induced by adding TGF–β1 at a concentration of 5 ng / ml, followed by continued impedance sampling for up to 48 h. For data analysis, impedance raw traces were normalized to the time point of compound addition and the baseline response (DMSO, non–TGF–β1 treated cells) was subtracted. In some cases, impedance values at defined time points were used to generate concentration–response curves to determine compound potency and efficacy using GraphPad Prism software version 7 (GraphPad Software Inc).

[2] = system: normal human lung fibroblasts (NHLF); test: Nuclear count in the HCA, standard assay; format: cell-based; conditions: standard HCA, NHLF, 5 ng/ml TGF–β1, 48 h, read-out: Nuclear count IC50
Method in brief: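 NHLF starved 24 h in serum-free basal medium with 0.1% BSA, then given compounds together with 5 ng/ml TGF-β1 for 48 h (0.6% DMSO). Methanol-fixed cells imaged for DAPI, α-SMA and FN; an SVM trained on ±TGF-β1 controls classified each cell, giving per-well % myofibroblast differentiation and nuclear counts.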

[3] = system: α–SMA protein in NHLF cells; test: RapidFire MS/MS quantification of α–SMA (IPQA), standard assay; format: cell-based, human
Experimental: (§1) Cell culture medium was removed and cells were lysed on ice by adding 5 μl / well of pre–cooled protein extraction buffer containing 10 mM Tris–HCl (pH 8.0), 6 M urea and 2 M thiourea and shaking on ice on a plate shaker at 600 rpm for 30 min.
(§2) Cell lysate was transferred to a 96–well polypropylene–PCR–plate. 15 μl / well denaturation buffer (6 M urea, 50 mM ammonium bicarbonate) and 2 μl / well of 50 mM TCEP were added and samples were denatured for 1 h at 60°C using the Veriti 96–well Fast Thermal Cycler System (Applied Biosystem) with a heated lid. Plates were allowed to cool to RT. Subsequently, 2 μl of 100 mM iodoacetamide were added per well to derivatize cysteine residues. Plates were then sealed and vortexed for 2 min in the dark and incubated for 30 min at 37°C in a thermal cycler with a heated lid. 90 μl of 50 mM ammonium bicarbonate pH 7.8 were added, followed by the addition of 10 μl of trypsin at 0.02 μg / ml. Samples were trypsin–digested overnight at 37°C in a thermal cycler with heated lid. […] Samples were desalted under vacuum using an Oasis HLB 96–well (30 μm particle size, 5 mg sorbent / well) reverse phase cartridge according to the manufacturer’s instructions and eluted with 170 μl of 90% acetonitrile, 0.1% formic acid. Samples were dried down with a flow of nitrogen at 40°C, left to cool to RT and re–suspended in 40 μl 5% acetonitrile, 0.1% formic acid on a plate shaker set to 1400 rpm for 5 min. Plates were centrifuged at 4,000 rpm for 10 min and 2 times 12 μl / well of supernatant were transferred into separate 96–well plates (Greiner Bio–One), sealed and stored at 4°C until analyzed by MS / MS.
(§3) Surrogate tryptic peptides were chosen for detection of COL1 (COL1A1), α–SMA (ACTA) and tubulin (TBA1A1) and crude synthetic peptides were purchased from Thermo Fischer. After several rounds of optimization following standard workflows, […] (COL1 / COL1A1), […] (α–SMA / ACTA) and […] LC–MS / MS analysis was performed on a RapidFire™ RF360 system (Agilent Technologies) coupled to an API 5500 (ABSciex) with positive ion electrospray ionization. […] Detection was performed using multiple reaction monitoring (MRM) mode to monitor parent⟶product ion transitions (m / z). […] The source parameters were curtain gas (CUR) nitrogen: 20 psig; collision gas (CAD): 7 psig; ion source gas 1: 50.0 psig; ion source gas 2: 50.0 psig; ion spray voltage (IS): 5500 V; turbo heater temperature (TEM): 600°C; entrance potential (EP): 10V. Peak areas for COL1A1 and ACTA were normalized by dividing by TBA1A peak area.

[4] = system: α–SMA protein in TGF–β1–induced NHLF myofibroblasts; test: MS/MS α–SMA, NHLF myofibroblast reversal assay; format: cell-based, human; conditions: Homo sapiens
Experimental: as §1, §2, §3
To identify compounds with potential to revert differentiated myofibroblasts to fibroblasts the assay procedures were modified. After 24 h starvation, NHLF cells were stimulated with 5 ng / ml TGF–β1 for 24 h. At t = 24 h TGF–β1 was removed and either vehicle (DMSO) or compounds were added and incubated with the cells for a further 72 h.

[5] = Fibroblast, 5 ng/ml TGF–β1, compound added with TGF–β1, impedance at t = 20 h post TGF–β1, mean ± SD, read-out: Impedance IC50
[6] = Homo sapiens, NHLF, 5 ng/ml TGF–β1, lysed 48 h after TGF–β1, normalized to tubulin, mean ± SD, read-out: MS / MS α–SMA IC50
[7] = reversal assay: 24 h 5 ng/ml TGF–β1, washed, 72 h compound, normalized to tubulin, read-out: MS / MS α–SMA IC50
[8] = Homo sapiens, Fibroblast, 5 ng/ml TGF–β1, t = 20 h, representative experiment of supplementary figure, read-out: IC50 on impedance (curve of a single experiment)
[9] = Homo sapiens, NHLF, 5 ng/ml TGF–β1, 48 h, representative experiment of supplementary figure, read-out: IC50 on α–SMA (curve of a single experiment)
[10] = NHLF pre–stimulated 24 h with 5 ng/ml TGF–β1, representative experiment, S7 Fig D, read-out: IC50, reversal of α–SMA (curve of a single experiment)

## COC(=O)c1ccc2c(c1)NC(=O)/C2=C(\Nc1ccc(N(C)C(=O)CN2CCN(C)CC2)cc1)c1ccccc1 [Nintedanib]
[1]; [5]
  IC50: 300 ± 110 nM
[2]; Homo sapiens, Fibroblast, 48 h
  IC50: 1400 nM
[3]; [6]
  IC50: 500 ± 120 nM
[4]; [7]
  IC50: > 10000 nM

## C[C@]12CC[C@H](O)C[C@H]1CC[C@@H]1[C@@H]2C[C@@H](O)[C@]2(C)[C@@H](C3=CC(=O)OC3)CC[C@]12O [Digoxigenin]
[1]; [5]
  IC50: 250 ± 140 nM
[1]; [8]
  IC50: 154 nM
[2]; Homo sapiens, Fibroblast, 48 h
  IC50: > 25000 nM
[2]
  IC50: 19000 nM
[3]; [6]
  IC50: 38 ± 6 nM
[4]; [7]
  IC50: 48 nM

## CCCCC[C@H](O)/C=C/[C@H]1[C@H](O)CC(=O)[C@@H]1CCCCCCC(=O)O [Alprostadil]
[1]; [5]
  IC50: 0.6 ± 0.1 nM
[2]; Homo sapiens, Fibroblast, 48 h
  IC50: > 25000 nM
[2]
  IC50: > 50000 nM
[3]; [9]
  IC50: 0.6 nM
[3]; [6]
  IC50: 1.9 ± 1.6 nM
[3]; NHLF in the absence of TGF–β1
  effect on basal α–SMA expression: no effect
[4]; [7]
  IC50: 1 nM

## CCCCC[C@H](O)/C=C/[C@H]1[C@H](O)CC(=O)[C@@H]1C/C=C\CCCC(=O)O [PGE2, prostaglandin E2]
[1]; [5]
  IC50: 0.5 ± 0.1 nM
[1]; [8]
  IC50: 0.4 nM
[2]; Homo sapiens, Fibroblast, 48 h
  IC50: > 2500 nM
[3]; [9]
  IC50: 0.3 nM
[3]; [6]
  IC50: 1.2 ± 1.2 nM
[4]; [10]
  IC50: 0.82 nM
[4]; [7]
  IC50: 0.8 nM

## O=C1CC[C@H](/C=C/[C@@H](O)Cc2ccccc2)N1CCCCCCc1nn[nH]n1 [Merck–19a]
[1]; 5 ng/ml TGF–β1, compound added with TGF–β1, impedance at t = 20 h post TGF–β1, mean ± SD, read-out: Impedance IC50
  IC50: 10.4 ± 1.1 nM
[3]; NHLF, 5 ng/ml TGF–β1, lysed 48 h after TGF–β1, normalized to tubulin, mean ± SD, read-out: MS / MS α–SMA IC50
  IC50: 108 ± 87 nM

## CC(C)(C)c1ccc(CN(Cc2cccc(OCC(=O)O)c2)S(=O)(=O)c2cccnc2)cc1 [Evatanepag]
[1]; [5]
  IC50: 6.7 ± 3 nM
[1]; [8]
  IC50: 5 nM
[2]; Homo sapiens, Fibroblast, 48 h
  IC50: > 50000 nM
[3]; [9]
  IC50: 5.5 nM
[3]; [6]
  IC50: 26 ± 29 nM
[4]; [7]
  IC50: 16 nM

## O=C(CC1NCCCC1O)Cn1cnc2cc(Br)c(Cl)cc2c1=O (stereo not drawn) [Halofuginone]
[1]; [5]
  IC50: 96 ± 10 nM
[1]; [8]
  IC50: 26 nM
[2]; Homo sapiens, Fibroblast, 48 h
  IC50: > 46000 nM
[3]; [9]
  IC50: 24 nM
[3]; [6]
  IC50: 27 ± 4 nM
[4]; [10]
  IC50: 40 nM
[4]; [7]
  IC50: 102 ± 87 nM

## Cc1cccc(-c2[nH]c(CNc3ccccc3F)nc2-c2ccc3ncnn3c2)n1 [EW–7197]
[1]; [5]
  IC50: 47 ± 25 nM
[2]; Homo sapiens, Fibroblast, 48 h
  IC50: > 25000 nM
[3]; [6]
  IC50: 51 ± 17 nM
[4]; [10]
  IC50: 51 nM
[4]; [7]
  IC50: 73 ± 31 nM

## TGF–β1: transforming growth factor–β1, stimulus of myofibroblast differentiation
[1]; impedance at t = 20 h, mean ± SD, n = 8
  EC50 of impedance change: 0.03 ± 0.01 ng/mL
[3]; NHLF, 5 ng/mL TGF-β1
  α-SMA / tubulin ratio: 0.51 ± 0.06
[3]; NHLF, 48 hours, MS/MS (n = 8)
  EC50 of α–SMA protein increase: 0.07 ± 0.01 ng/mL
[3]; NHLF, at 48 hours
  increase of α–SMA protein: about 3 fold
